Assay results from patent US20060241114A1, “Derivatives of azasugars as anticancer agents” (priority 2003, published 2006).

Key:
[1] = test system: DU145 (prostate carcinoma); experiment: In vitro growth inhibition screen (sulphorhodamine B), DU145; type: cell-based, human; settings: DU145 cells, incubated for 48 hours, sulphorhodamine B dye; read-out: GI50 (concentration which inhibits the cell growth by 50%), DU145 Prostate carcinoma
In short: (§1)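 SRB assay, 48 h treatment, RPMI 1640 + 10% FCS, 37° C, 5% CO2; dose range ≧100 μM–10 nM in ten-fold steps; OD 490 nm; GI50 derived.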

[2] = test system: HT29 (colorectal adenocarcinoma); experiment: In vitro growth inhibition screen (sulphorhodamine B), HT29; type: cell-based, human; settings: HT29 cells, incubated for 48 hours, sulphorhodamine B dye; read-out: GI50 (concentration which inhibits the cell growth by 50%), HT29 Colorectal adenocarcinoma
In short: as §1

LOX (melanoma) = experiment: In vitro growth inhibition screen (sulphorhodamine B), LOX; type: cell-based, human; settings: LOX cells, incubated for 48 hours, sulphorhodamine B dye; read-out: GI50 (concentration which inhibits the cell growth by 50%), LOX Melanoma
In short: as §1

[3] = test system: MCF7 (breast adenocarcinoma); experiment: In vitro growth inhibition screen (sulphorhodamine B), MCF7; type: cell-based, human; settings: MCF7 cells, incubated for 48 hours, sulphorhodamine B dye; read-out: GI50 (concentration which inhibits the cell growth by 50%), MCF7 Breast adenocarcinoma
In short: as §1

[4] = test system: MCF7ADR (adriamycin resistant breast adenocarcinoma); experiment: In vitro growth inhibition screen (sulphorhodamine B), MCF7ADR; type: cell-based, human; settings: MCF7ADR cells, incubated for 48 hours, sulphorhodamine B dye; read-out: GI50 (concentration which inhibits the cell growth by 50%), MCF7ADR Adriamycin Resistant Breast adenocarcinoma
In short: as §1

[5] = test system: U251 (human glioblastoma); experiment: In vitro growth inhibition screen (sulphorhodamine B), U251; type: cell-based; settings: U251 cells, incubated for 48 hours, sulphorhodamine B dye; read-out: GI50 (concentration which inhibits the cell growth by 50%), U251 Human glioblastoma astrocytoma
In short: as §1

Row | Molecule | GI50 [1] | GI50 [2] | GI50 (LOX (melanoma)) | GI50 [3] | GI50 [4] | GI50 [5]
1 | C=CCN1C(=O)C(OCc2ccccc2)C(OCc2ccccc2)C(OCc2ccccc2)C1Cn1ncn(-c2ccc(Cl)cc2)c1=O [Compound No. 81, 2,3,4-Tri-O-benzyl-6-[4-chlorophenyl-3(2H,4H)-1,2,4-triazol-3-onyl]-N-allyl-D-gluco-δ-lactam] | 70.1 µM | 49.5 µM | 11.9 µM | 102 µM | 77 µM | > 250 µM
2 | C=CCN1C(=O)C(OCc2ccccc2)C(OCc2ccccc2)C(OCc2ccccc2)C1CN1C(=O)CCCC1=O [Compound No. 82, N-Allyl-2,3,4-tri-O-benzyl-6-(2,6-diketopiperidino)-D-gluco-δ-lactam] | 24.8 µM | 23.5 µM | 8.5 µM | 9.9 µM | 17.5 µM | 12.5 µM
3 | C=CCN1C(=O)[C@H](OCc2ccccc2)[C@@H](OCc2ccccc2)[C@H](OCc2ccccc2)[C@H]1CN1C(=O)c2ccccc2C1=O [Compound No. 83, N-Allyl-2,3,4-tri-O-benzyl-6-(1H-isoindole-1,3(2H)-diketo)-D-gluco-δ-lactam] | 55.2 µM | 80.1 µM | 51.4 µM | 13.1 µM | 6.7 µM | > 140 µM
4 | C=CCN1C(=O)C(OCc2ccccc2)C(OCc2ccccc2)C(OCc2ccccc2)C1CN1C(=O)CCC1=O [Compound No. 84, N-Allyl-2,3,4-tri-O-benzyl-6-(2,5-diketopyrrolidino)-D-gluco-δ-lactam] | 18.3 µM | 18.7 µM | 5.9 µM | 5.3 µM | 6.4 µM | 9.3 µM
5 | C=CCN1C[C@H](OCc2ccccc2)[C@@H](OCc2ccccc2)[C@H](OCc2ccccc2)[C@H]1CN1CCOCC1 [Compound No. 85, N-Allyl-2,3,4-tri-O-benzyl-1,5-dideoxy-1,5-imino-6-morpholino glucitol] | 43.5 µM | 11.3 µM | 27.3 µM | 7.2 µM | 40.3 µM | 25.9 µM
6 | CCCN1C(=O)[C@H](O)[C@@H](O)[C@H](O)[C@H]1CN1C(=O)CCC1=O [Compound No. 86, 6-(2,5-Diketopyrrolidino)-N-propyl-D-gluco-δ-actam] | 38.5 µM | 44.4 µM | 37.5 µM | 36.2 µM | 52.2 µM | 34.4 µM
7 | CCCN1C(=O)[C@H](O)[C@@H](O)[C@H](O)[C@H]1CN1C(=O)CCCC1=O [Compound No. 87, 6-(2,6-Diketopiperidino)-N-propyl-D-gluco-δ-lactam] | 131 µM | 108 µM | 244 µM | 74.2 µM | 96.9 µM | 101 µM
8 | CCCN1C(=O)[C@H](OCc2ccccc2)[C@@H](OCc2ccccc2)[C@H](OCc2ccccc2)[C@H]1COc1nc(Cl)nc(Cl)n1 [Compound No. 90, 2,3,4-Tri-O-benzyl-6-O-(4,6-dichloro-1,3,5-triazin-1-yl)-N-propyl-D-gluco-δ-lactam] | 16.7 µM | 37.1 µM | 14.4 µM | 35.4 µM | 18.7 µM | 52.8 µM
9 | N-Allyl-2,3,4-tri-O-benzyl-1,5-dideoxy-1,5-imino-D-glucitol [Compound No. 71] | 14.5 µM | 3.5 µM | 9.5 µM | 5.4 µM | 9.2 µM | 8.3 µM
10 | N-Propyl-6-[4-chlorophenyl-3(2H,4H)-1,2,4-triazol-3-onyl]-D-gluco-δ-lactam [Compound No. 88] | 144 µM | 111 µM | 135 µM | 102 µM | 107 µM | 90.7 µM
11 | N-{4-[Phenyl]piperazinyl carboxamido}-D-gluco-δ-lactam [Compound No. 80] | 90.7 µM | 100 µM | 75.9 µM | 69.4 µM | 60.1 µM | 59.9 µM
